Article PMC6353901, “Systematic characterization of position one variants within the lantibiotic nisin” (Scientific Reports, 2019)
Ends that are not written are not given here.

Columns and labels:
NisP = experiment: Leader peptide cleavage of pre-nisin variants by NisP (RP-HPLC); format: biochemical, Lactococcus lactis; settings: in vitro cleavage of the leader peptide from purified pre-nisin (variant) by purified secreted NisP, overnight at 8 °C, integration of leader peptide peaks
Text: Step IV concerns leader peptide cleavage and thereby activation of the purified pre-nisin variants. Here, we used the secreted variant of the natural leader peptidase NisP, by which the leader peptide is cleaved in vitro and the cleavage efficiency (%) can be calculated as recently shown. We used an RP-HPLC set-up to monitor product formation, in which the appearance of the leader peptide in the chromatograms was used to determine the concentration of activated nisin (Supplementary Fig. S3). […] The nisin core peptide eluted at a later retention time of approximately 23 min (Supplementary Fig. S3). […] However, in the case of the I1 mutants I1A, I1G, I1T, I1S, I1K, I1R, I1H, I1Q, I1E, I1N and I1D) the formation of a core peptide peak in terms of a new and separated peak in the chromatogram was not observed (Supplementary Fig. S4). Rather, the peaks with a retention time between 18–21 min contained both species, the cleaved and non-cleaved lantibiotic, and can therefore not be deconvoluted for proper determination of the amount of activated nisin. […] The concentration was calculated based on a standard calibration curve (Supplementary Fig. S5), where we precisely determined the concentration of the activated nisin or I1 mutants. We used this concentration determination instead of the colorimetric protein concentration determination as for example Bradford or the BCA-assay since the latter two assays cannot differentiate between the activated and non-activated form of the secreted variants. Since nisin is not active unless the leader is cleaved off, the determination of the area of the leader peak to calculate the amount of the activated lantibiotic directly relates to the antimicrobial activity without need to further purify the peptide after cleavage.
All I1 mutations were subjected to NisP cleavage and most of the variants were cleaved, but a strong influence of the nature of the I1 substitutions with respect to cleavage efficiency was observed (Supplementary Fig. S6). The cleavage efficiency for wild type pre-nisin A was 94.3 ± 1.7% but lower for the mutants I1M, I1L, I1A and I1V (72.3 ± 1.4%, 72.4 ± 1.3%, 81.0 ± 1.8% and 58.1± 2.8%, respectively). […] This holds especially in those cases, where the amino acid at position one was exchanged to a charged amino acid (e.g. I1K 9.2 ± 1.3%; I1E 9.5 ± 0.7%) or contained a bulky hydrophobic side chain (e.g. I1F 12.9 ± 0.8%; I1W 5.7 ± 0.2%; I1Y 22.6 ± 2.3%) (Supplementary Fig. S6). […] Even after an extensive prolongation of the incubation time, no leader peptide peak was detected in the RP-HPLC chromatogram (Supplementary Fig. S4). It is important to stress in this context that the cleavage efficiencies cannot be determined from Tricine-SDS gels (20%). Here, the leader peptide as well as the core peptide would co-migrate, which obviously will falsify the staining results.
Pre-nisin and its variants were expressed and purified as previously described[41],[49],[69]. The purity of pre-nisin and its variants was controlled by Tricine-SDS-PAGE (20%)[70]. The activation of all variants was performed by NisP cleavage overnight at 8 °C. Pre-nisin cleavage and its variants was monitored by RP-HPLC[49],[69].
Pre-nisin and the activated nisin variants were analysed by RP-HPLC (Agilent Technologies 1260 Infinity II) with a LiChrospher WP 300 RP-18 end-capped column and an acetonitrile/water solvent system. The cleavage efficiency and the concentration of active lantibiotic was calculated as described previously[49],[69].

[1] = pre-lantibiotic in contrast to nisin; cited from earlier work
Experimental: As an advantage any lantibiotic can be produced as a pre-lantibiotic. […] Normally, we observed yields for the pre-nisin and its variants of 3–6 mg per liter cell culture supernatant after purificatio ...

| Compound | cleavage efficiency by NisP (NisP) | pH stability [1] |
| --- | --- | --- |
| wild type pre-nisin A: leader-containing, fully modified precursor of nisin A, not yet activated by NisP (MSTKDFNLDLVSVSKKDSGASPRITSISLCTPGCKTGALMGCNMKTATCHCSIHVSK; thioether (positions not given here); not fully specified (some residues, bridges); also: fully post-translationally modified, places not given here; UniProt P13068 1-57, looked up) [reference compound] | 94.3 ± 1.7% | higher pH stability |
| C=C(NC(=O)[C@@H](NC(=O)[C@H](Cc1c[nH]cn1)NC(=O)[C@@H](NC(=O)[C@H](CO)NC(=O)[C@@H]1CS[C@@H](C)[C@H]2NC(=O)[C@H](C)NC(=O)[C@H](NC(=O)[C@H](CCCCN)NC(=O)[C@H](CCSC)NC(=O)[C@H](CC(N)=O)NC(=O)[C@@H]3CS[C@@H](C)[C@@H](NC(=O)[C@H](CCCCN)NC(=O)[C@@H]4CS[C@@H](C)[C@@H](NC(=O)[C@@H]5CSC[C@@H](NC(=O)/C(=C/C)NC(=O)[C@@H](N)CCSC)C(=O)N[C@@H]([C@@H](C)CC)C(=O)NC(=C)C(=O)N[C@@H](CC(C)C)C(=O)N5)C(=O)N5CCC[C@H]5C(=O)NCC(=O)N4)C(=O)NCC(=O)N[C@@H](C)C(=O)N[C@@H](CC(C)C)C(=O)N[C@@H](CCSC)C(=O)NCC(=O)N3)[C@H](C)SC[C@H](NC2=O)C(=O)N[C@@H](Cc2c[nH]cn2)C(=O)N1)[C@@H](C)CC)C(C)C)C(=O)N[C@@H](CCCCN)C(=O)O [I1M] | 72.3 ± 1.4% |  |
